Test: xn = mol fraction of the nth substance listed

CCCCCCCCCCCCOS(=O)(=O)[O-].[Na+] + CCCO + O
298 K, 100 kPa, frequency 0.001 MHz
Conditions	electrical conductivity [S/m]
x2 = 0.01543, x1 = 3.435e-05	0.0146
x2 = 0.02615, x3 = 0.9738	0.033
x2 = 0.04737, x3 = 0.9525	0.0508
x2 = 0.07172, x3 = 0.9277	0.102
x2 = 0.07173, x3 = 0.9279	0.0751

298.15 K, 101 kPa
Conditions	electrical conductivity [S/m]
x2 = 0, x1 = 3.24e-06	0.001447
x2 = 0, x1 = 8.11e-06	0.003433
x2 = 0, x1 = 1.64e-05	0.006697
x2 = 0, x1 = 2.505e-05	0.01006
x2 = 0, x1 = 2.991e-05	0.0119
x2 = 0, x1 = 3.478e-05	0.01378
x2 = 0, x1 = 3.964e-05	0.01564
x2 = 0, x1 = 5.063e-05	0.01999
x2 = 0, x1 = 6.198e-05	0.02434
x2 = 0, x1 = 7.406e-05	0.02896
x2 = 0, x1 = 8.09e-05	0.03151
x2 = 0, x1 = 8.667e-05	0.03369
x2 = 0, x1 = 9.135e-05	0.03548
x2 = 0, x1 = 9.694e-05	0.03753
x2 = 0, x1 = 0.0001016	0.03931
x2 = 0, x1 = 0.000107	0.04131
x2 = 0, x1 = 0.0001175	0.0452
x2 = 0, x1 = 0.0001223	0.047
x2 = 0, x1 = 0.0001268	0.04874
x2 = 0, x1 = 0.0001315	0.0504
x2 = 0, x1 = 0.0001364	0.05202
x2 = 0, x1 = 0.0001411	0.05353
x2 = 0, x1 = 0.0001454	0.05471
x2 = 0, x1 = 0.0001541	0.05656
x2 = 0, x1 = 0.0001586	0.05737
x2 = 0, x1 = 0.0001631	0.05814
x2 = 0, x1 = 0.0001692	0.05912
x2 = 0, x1 = 0.0001735	0.05977
x2 = 0, x1 = 0.000178	0.06043
x2 = 0, x1 = 0.0001825	0.06112
x2 = 0, x1 = 0.0001892	0.06206
x2 = 0, x1 = 0.0001935	0.06269
x2 = 0, x1 = 0.0002002	0.06378
x2 = 0, x1 = 0.0002048	0.06444
x2 = 0, x1 = 0.0002097	0.06508
x2 = 0, x1 = 0.000214	0.06575
x2 = 0.007626, x1 = 0.0004015	0.09227
x2 = 0.007627, x1 = 0.0002602	0.06737
x2 = 0.007627, x1 = 0.0002829	0.07143
x2 = 0.007627, x1 = 0.0003124	0.07668
x2 = 0.007627, x1 = 0.0003456	0.08254
x2 = 0.007628, x1 = 0.0001267	0.04228
x2 = 0.007628, x1 = 0.000135	0.04399
x2 = 0.007628, x1 = 0.0001447	0.04592
x2 = 0.007628, x1 = 0.0001683	0.05047
x2 = 0.007628, x1 = 0.0001845	0.05346
x2 = 0.007628, x1 = 0.0002013	0.05663
x2 = 0.007628, x1 = 0.0002199	0.06003
x2 = 0.007628, x1 = 0.0002404	0.06381
x2 = 0.007629, x1 = 1.192e-05	0.004556
x2 = 0.007629, x1 = 1.321e-05	0.005113
x2 = 0.007629, x1 = 1.651e-05	0.00628
x2 = 0.007629, x1 = 1.962e-05	0.007449
x2 = 0.007629, x1 = 2.274e-05	0.00856
x2 = 0.007629, x1 = 2.623e-05	0.009738
x2 = 0.007629, x1 = 2.934e-05	0.01087
x2 = 0.007629, x1 = 3.228e-05	0.01189
x2 = 0.007629, x1 = 3.595e-05	0.01317
x2 = 0.007629, x1 = 3.925e-05	0.01435
x2 = 0.007629, x1 = 4.255e-05	0.01551
x2 = 0.007629, x1 = 4.823e-05	0.0178
x2 = 0.007629, x1 = 5.135e-05	0.0189
x2 = 0.007629, x1 = 5.465e-05	0.02006
x2 = 0.007629, x1 = 5.795e-05	0.02124
x2 = 0.007629, x1 = 6.474e-05	0.02366
x2 = 0.007629, x1 = 6.804e-05	0.02483
x2 = 0.007629, x1 = 7.152e-05	0.02603
x2 = 0.007629, x1 = 7.464e-05	0.02715
x2 = 0.007629, x1 = 7.776e-05	0.02824
x2 = 0.007629, x1 = 8.088e-05	0.02934
x2 = 0.007629, x1 = 8.418e-05	0.03045
x2 = 0.007629, x1 = 8.95e-05	0.03235
x2 = 0.007629, x1 = 9.426e-05	0.03397
x2 = 0.007629, x1 = 9.995e-05	0.03577
x2 = 0.007629, x1 = 0.0001049	0.03716
x2 = 0.007629, x1 = 0.0001146	0.03955
x2 = 0.01553, x1 = 4.687e-05	0.01553
x2 = 0.01553, x1 = 5.322e-05	0.01769
x2 = 0.01553, x1 = 7.282e-05	0.0238
x2 = 0.01553, x1 = 7.842e-05	0.02558
x2 = 0.01553, x1 = 8.757e-05	0.02822
x2 = 0.01553, x1 = 9.765e-05	0.03081
x2 = 0.01553, x1 = 0.0001083	0.03351
x2 = 0.01553, x1 = 0.0001201	0.03619
x2 = 0.01553, x1 = 0.0001298	0.03847
x2 = 0.01553, x1 = 0.0001533	0.04391
x2 = 0.01553, x1 = 0.0001677	0.04711
x2 = 0.01553, x1 = 0.0001815	0.05015
x2 = 0.01553, x1 = 0.0001979	0.05361
x2 = 0.01553, x1 = 0.0002319	0.06058
x2 = 0.01553, x1 = 0.0002511	0.06442
x2 = 0.01553, x1 = 0.0002703	0.06822
x2 = 0.01553, x1 = 0.0002877	0.0716
x2 = 0.01553, x1 = 0.0003082	0.07551
x2 = 0.01554, x1 = 5.98e-06	0.002351
x2 = 0.01554, x1 = 1.176e-05	0.004274
x2 = 0.01554, x1 = 1.811e-05	0.006392
x2 = 0.01554, x1 = 2.428e-05	0.008288
x2 = 0.01554, x1 = 2.894e-05	0.009768
x2 = 0.01554, x1 = 3.492e-05	0.01173

CCCCCCCCn1cc[n+](C)c1.[Cl-] + CCO
viscosity [mPa·s], 101 kPa
Conditions	x2 = 0.0449	x2 = 0.1305	x2 = 0.6858	x2 = 0.8809	x2 = 0.9794
298.15 K	12600	5400	–	–	–
313.15 K	–	–	14.6	–	1.061
328.15 K	830	–	9.12	1.997	0.819

CC[n+]1ccn(C)c1.N#C[S-] + CCO
101 kPa
Conditions	viscosity [mPa·s]
283.15 K, x1 = 0.8045	22.86
283.15 K, x1 = 0.8971	29.28
293.15 K, x1 = 0.8971	20.53
303.15 K, x1 = 0.0504	1.31
303.15 K, x1 = 0.2012	2.31
303.15 K, x1 = 0.951	17.12
313.15 K, x1 = 0.0504	1.1
313.15 K, x1 = 0.6016	6.04
313.15 K, x1 = 0.7018	7.47
313.15 K, x1 = 0.8971	11.5
313.15 K, x1 = 1	14.3
323.15 K, x1 = 0.7018	6.02
323.15 K, x1 = 0.951	10.17

C[N+](C)(C)CCC[N+]1(C)CCCCC1.N#C[N-]C#N.N#C[N-]C#N + CCO
viscosity [mPa·s], 100 kPa
Conditions	x1 = 0.0999	x1 = 0.2001	x1 = 0.3002	x1 = 0.3999	x1 = 0.5002	x1 = 0.6001	x1 = 0.7003	x1 = 0.7998	x1 = 0.8995	x1 = 1
293.15 K	6.82	19.7	47.6	115	280	596	1088	1716	2737	4503
303.15 K	5.39	15	33	73.3	164	330	545	830	1240	1837
313.15 K	4.38	11.6	24.1	49.6	106	211	310	461	624	860
323.15 K	3.68	9.19	18.1	35.2	70.5	132	192	267	360	460
333.15 K	3.18	7.55	14.1	26.2	50.7	85.9	126	171	219	270

CCOC(C)(C)C + CCO + CCOS(=O)(=O)[O-].CC[n+]1ccn(C)c1
298.15 K, 101 kPa
Conditions	viscosity [mPa·s]
x2 = 0.1248, x1 = 0.0174	63
x2 = 0.1973, x1 = 0.0324	46.3
x2 = 0.3162, x1 = 0.029	30.74
x2 = 0.395, x1 = 0.0475	21.09
x2 = 0.4866, x1 = 0.0465	14.2
x2 = 0.5653, x1 = 0.0501	9.77
x2 = 0.6539, x1 = 0.3132	0.878
x2 = 0.6567, x1 = 0.0845	5.13
x2 = 0.6872, x1 = 0.0848	4.39
x2 = 0.6916, x1 = 0.2368	1.352
x2 = 0.6923, x1 = 0.035	5.65
x2 = 0.7064, x1 = 0.1236	3.102
x2 = 0.7089, x1 = 0.2556	0.974
x2 = 0.7162, x1 = 0.1736	1.937
x2 = 0.7254, x1 = 0.0338	4.79
x2 = 0.7605, x1 = 0.0564	3.565
x2 = 0.7622, x1 = 0.1589	1.568
x2 = 0.7999, x1 = 0.077	2.401
x2 = 0.8182, x1 = 0.1407	1.208
x2 = 0.841, x1 = 0.072	1.86
x2 = 0.902, x1 = 0.0527	1.428
